Format in all cases: cell-based, human
Data set [1] has as its system Huh7 cells. Nature of the data set: CCK8 cell viability assay, Huh7. The protocol:
(§1) This study aimed to assess the anti-proliferative activity of dolutegravir-1,2,3-triazole derivatives on hepatocellular carcinoma cell lines, Huh7 and hepG2. A comprehensive CCK8 assay was employed to evaluate the impact of these compounds on cell viability, with cells treated at a concentration of 20 μM for 48 h. HRM cells, a normal cell line, were included as a control for comparative analysis.
(§2) Human hepatocellular carcinoma cell lines Huh7 and hepG2 were obtained from ATCC (Manassas, VA, USA). Cells were cultured in DMEM or RPMI 1640 medium containing 10% FBS and 1% penicillin/streptomycin at 37 °C with a 5% CO2-humidified atmosphere.
(§3) CCK8 assay was used to measure cell viability. Cells with a density of 1 × 10^4 cells/well were seeded on 96-well plates. After adhesion, cells were treated with different diluted compounds or vehicle control DMSO and continued to be cultured for 48 h or 72 h, respectively. Then, CCK8 reagent was added for one hour incubation at 37 °C with 5% CO2. Absorbance was measured using a Microplate spectrophotometer (Thermo, Waltham, MA, USA) at 450 nm. The ratio of cell viability of control was taken as 100%. […] Then, IC50 of compounds were investigated using the prism statistical software 7.0.

For a further data set, the system named is hepG2 cells. Nature of the data set: CCK8 cell viability assay, hepG2. On the procedure:
as §1, §2, §3

The subject of data set [2] is Huh7 cells. Nature of the data set: Plate clone formation assay. The note with it: 0, 2, 4, 8, 16, 32 μM, 48 h. On the procedure: To further assess the anti-proliferative activity of dolutegravir derivatives, LIVE/DEAD staining was conducted. Huh7 cells were treated with 5 μM or 10 μM of 5e and 5p for 24 h, followed by live and dead cell imaging and quantification. […] This may be attributed to significant cell proliferation suppression at 10 μM concentration, leading to a limited number of viable cells. Furthermore, to validate the impact of dolutegravir derivatives on cell proliferation, a plate clone formation assay was performed. Cells were exposed to various concentrations (0, 2, 4, 8, 16, and 32 μM) of 5e or 5p.
Huh7 cells were seeded into 6-well plates at a density of 100–500 cells/well. After 10 days culture, cells were added with 5e or 5p at different concentrations (0, 2 μM, 4 μM, 8 μM, 16 μM, 32 μM) for 48 h. Then, cells were fixed by 4% paraformaldehyde and stained by Giemsa dye. An optical microscope was used to photograph cells and the clone numbers were counted.

In data set [3] the test system is Huh7 cells. Nature of the data set: Apoptosis assay, Annexin V-FITC/PI flow cytometry. To be noted: 48 h. On the procedure:
Given the observed inhibitory effects of compounds 5e and 5p on cancer cell proliferation, we further investigated their impact on cell apoptosis. Apoptosis analysis was conducted on Huh7 cells treated with varying concentrations of 5e or 5p, utilizing Annexin V-FITC and PI staining, followed by flow cytometry to quantify apoptotic cells.
Huh7 cells were cultured in 6-well plates with a density of 3 × 10^5 cells/well. Different concentrations of 5e or 5p were added to cells for 48 h, respectively. The concentrations were 0, 2, 4, and 8 μM for Huh7 cells. After treatment, Annexin V-FITC Apoptosis Detection Kit (Elabscience, Wuhan, China) was used to determine the apoptotic ratio and FlowJo software v10 was used to analyze.

In the next data set the test system is Caspase3. Nature of the data set: Western blot, Caspase3. The note with it: 2, 4, 8 μM, 48 h, Huh7, western blot. On the procedure:
(§4) To elucidate the impact of compounds 5e and 5p on the regulation of cell proliferation, we examined the expression levels of key proteins involved in cell growth processes, encompassing autophagy, apoptosis, cell cycle, and DNA damage (Figure 7).
(§5) Protein expression levels were measured by western blot. Huh7 cells were cultured in 12-well plates and different concentrations (0, 2, 4, 8 μM) of 5e and 5p were added for 48 h. Proteins were extracted from whole cells using radio-immunoprecipitation assay (RIPA) buffer containing a protease/phosphatase inhibitor cocktail (CST). Then, 10–15% sodium dodecyl sulfate polyacrylamide gel electrophoresis and nitrocellulose membranes (Millipore) were employed to separate and collect proteins. Antibodies used include LC3 (3868s, CST), Caspase3 (9662, CST), cyclin D (2922s, CST), cyclin E (20808s, CST), γH2AX (9718s, CST), β-Catenin (9562s, CST), and β-actin (4967s, CST).

The test system of data set [4] is Cyclin D, Cyclin E, β-catenin. Nature of the data set: Western blot, cell cycle-related proteins. The note with it: 2, 4, 8 μM, 48 h, Huh7, western blot. The protocol:
as §4, §5

Structures are written as SMILES.

Take `COc1c2n(cc(C(=O)Nc3cccc(-c4cn(-c5cccc(C(F)(F)F)c5)nn4)c3)c1=O)CC1OCCC(C)N1C2=O` (stereo not shown) [Compound 5p]: in the data set on Huh7 cells [1] (20 μM, Huh7, CCK8, control taken as 100%), the “Cell Viability (100%), 20 μM, 48 h, Huh7” value worked out at 5.93%. The IC50 was 5.42 ± 0.43 µM in the data set with Huh7 cells [1] (48 h, Huh7, CCK8, read-out: half maximal inhibitory concentration (IC50), Huh7) and 4.83 ± 1.17 µM in the data set with hepG2 cells (48 h, hepG2, CCK8, read-out: half maximal inhibitory concentration (IC50), hepG2). The “Cell Viability (100%), 20 μM, 48 h, hepG2” value in the data set with hepG2 cells (20 μM, hepG2, CCK8, control taken as 100%) is reported as 30.66%. Besides, the plate clone formation result in the data set with Huh7 cells [2] is on record as “dose-dependent anti-proliferative activity”. The “apoptosis in Huh7 cells” value was “no significant impact” in the data set on Huh7 cells [3] (2 μM), “remarkable apoptosis” in the data set on Huh7 cells [3] (4 μM) and “remarkable apoptosis” in the data set on Huh7 cells [3] (8 μM). In the data set on Caspase3, the Caspase3 protein expression entry is “remained unchanged”. The “Cyclin D, Cyclin E or β-catenin expression” value in data set [4] was “no significant differences”.
